The text below walks through data of patent US20250049970A1, “DLL3 TARGETING PEPTIDES AND CONSTRUCTS THEREOF” (MARIANA ONCOLOGY INC., priority 2023, published 2025).

The experiment concerns the target T1, DLL3 (Homo sapiens, UniProt Q9NYJ7).
T1 sequence (Q9NYJ7 27-618): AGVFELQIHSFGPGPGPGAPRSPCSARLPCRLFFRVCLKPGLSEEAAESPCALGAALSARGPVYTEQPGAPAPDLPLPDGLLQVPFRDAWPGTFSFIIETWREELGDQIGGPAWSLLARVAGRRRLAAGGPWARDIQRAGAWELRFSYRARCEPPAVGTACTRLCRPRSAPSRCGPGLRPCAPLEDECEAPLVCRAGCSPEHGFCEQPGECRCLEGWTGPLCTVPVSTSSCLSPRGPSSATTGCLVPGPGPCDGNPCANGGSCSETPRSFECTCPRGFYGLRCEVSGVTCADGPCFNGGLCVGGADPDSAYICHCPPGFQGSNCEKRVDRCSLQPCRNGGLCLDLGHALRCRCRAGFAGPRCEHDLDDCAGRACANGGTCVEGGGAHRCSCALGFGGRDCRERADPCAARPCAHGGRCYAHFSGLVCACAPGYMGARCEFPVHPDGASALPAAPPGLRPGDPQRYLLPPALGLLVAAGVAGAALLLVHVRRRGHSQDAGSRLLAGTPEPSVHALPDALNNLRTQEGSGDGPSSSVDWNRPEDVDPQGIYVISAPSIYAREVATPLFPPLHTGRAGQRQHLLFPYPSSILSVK
Kind of experiment: SPR KD, biotinylated human DLL3 on streptavidin chip (Table 8). The note with it: biotinylated human DLL3 on streptavidin sensor chip, 25° C., 1:1 binding model; read-out: SPR KD. More on the design: biotin (biotinylated). An excerpt: Biotinylated target ligand human DLL3 was immobilized on a streptavidin sensor chip. A reference surface was set up for nonspecific binding and refractive index changes. […] Sensorgram curves were fitted with 1:1 binding model, and affinity and kinetic parameters were obtained using Biacore Insight evaluation 4.0. software.

*1 amine or outer side, *2 acyl side, *3 side chain or, on linkers, in order; H or OH if unused. Where a SMILES comes first, the peptide text is derived from it. Bridges are numbered along the chain shown (N, C = ends). [ ]: non-standard residue; d: D form. The star is where a group is joined. Ala(piperidin-4-yl) = O=C([C@H](CC1CCN([*:3])CC1)N[*:1])[*:2]; DOTA = O=C(O)CN1CCN(CC(=O)O)CCN(CC(=O)*)CCN(CC(=O)O)CC1; Trp(7-OMe) = COc1cccc2c(C[C@H](N)C(=O)O)c[nH]c12; Trp(7-Me) = Cc1cccc2c(C[C@H](N)C(=O)O)c[nH]c12; NMeW = CN[C@@H](Cc1c[nH]c2ccccc12)C(=O)O; 2Nal = N[C@@H](Cc1ccc2ccccc2c1)C(=O)O; mXylylene = c1cc(C[*:1])cc(C[*:2])c1; oXylylene = c1ccc(C[*:2])c(C[*:1])c1; NMeH = CN[C@@H](Cc1c[nH]cn1)C(=O)O; NMeD = CN[C@@H](CC(=O)O)C(=O)O; NMeN = CN[C@@H](CC(N)=O)C(=O)O; Chg = N[C@H](C(=O)O)C1CCCCC1; NMeNle = CCCC[C@H](NC)C(=O)O; CH2 = C([*:1])[*:2]

On to `CC[C@H](C)[C@H](NC(=O)[C@@H](NC(=O)[C@H](Cc1c[nH]c2ccccc12)NC(C)=O)[C@@H](C)O)C(=O)N[C@H]1CSSC[C@@H](C(=O)N[C@@H](Cc2c[nH]c3ccccc23)C(=O)N2CCC[C@H]2C(=O)O)NC(=O)[C@H](CC(=O)O)NC(=O)[C@H](Cc2c[nH]cn2)NC(=O)[C@H](Cc2c[nH]c3ccccc23)NC(=O)[C@H](CC(N)=O)N(C)C(=O)[C@H](CC(N)=O)NC1=O` [compound 385, Ac-W-T-I-C(3)-N-(NmeN)-W-H-D-C(3)-W-P-CONH2] (Ac-WTICN[NMeN]WHDCWP-OH; disulfide 4-10), for which the Kd – broadly, the constant that tells how readily two partners part at equilibrium – is 0.01 to 0.1 µM. To `CC[C@H](C)[C@H](NC(=O)[C@@H](NC(=O)[C@H](Cc1c[nH]c2ccccc12)NC(C)=O)[C@@H](C)O)C(=O)N[C@H]1CSSC[C@@H](C(=O)N[C@@H](Cc2c[nH]c3ccccc23)C(=O)N2CCC[C@H]2C(=O)O)NC(=O)[C@H](CC(=O)O)NC(=O)[C@H](Cc2c[nH]cn2)NC(=O)[C@H](Cc2c[nH]c3ccccc23)N(C)C(=O)[C@H](CC(N)=O)NC(=O)[C@H](CC(N)=O)NC1=O` [compound 386, Ac-W-T-I-C(3)-N-N-(NmeW)-H-D-C(3)-W-P-CONH2] (Ac-WTICNN[NMeW]HDCWP-OH; disulfide 4-10) belongs 0.1 to 0.3 µM; to `CC[C@H](C)[C@H](NC(=O)[C@@H](NC(=O)[C@H](Cc1c[nH]c2ccccc12)NC(C)=O)[C@@H](C)O)C(=O)N[C@H]1CSSC[C@@H](C(=O)N[C@@H](Cc2c[nH]c3ccccc23)C(=O)N2CCC[C@H]2C(N)=O)NC(=O)[C@H](CC(=O)O)NC(=O)[C@H](Cc2cnc[nH]2)N(C)C(=O)[C@H](Cc2c[nH]c3ccccc23)NC(=O)[C@H](CC(N)=O)NC(=O)[C@H](CC(N)=O)NC1=O` [compound 387, Ac-W-T-I-C(3)-N-N-W-(NmeH)-D-C(3)-W-P-CONH2] (Ac-WTICNNW[NMeH]DCWP-NH2; disulfide 4-10), 0.01 to 0.1 µM.

As for `CC[C@H](C)[C@H](NC(=O)[C@@H](NC(=O)[C@H](Cc1c[nH]c2ccccc12)NC(C)=O)[C@@H](C)O)C(=O)N[C@H]1CSSC[C@@H](C(=O)N[C@@H](Cc2c[nH]c3ccccc23)C(=O)N2CCC[C@H]2C(N)=O)NC(=O)[C@H](CC(=O)O)N(C)C(=O)[C@H](Cc2cnc[nH]2)NC(=O)[C@H](Cc2c[nH]c3ccccc23)NC(=O)[C@H](CC(N)=O)NC(=O)[C@H](CC(N)=O)NC1=O` [compound 388, Ac-W-T-I-C(3)-N-N-W-H-(NmeD)-C(3)-W-P-CONH2] (Ac-WTICNNWH[NMeD]CWP-NH2; disulfide 4-10), the Kd was in the range of 0.1 to 0.3 µM. As for `CC[C@H](C)[C@H](NC(=O)[C@@H](NC(=O)[C@H](Cc1c[nH]c2ccccc12)NC(C)=O)[C@@H](C)O)C(=O)N[C@H]1CSSC[C@@H](C(=O)N(C)[C@@H](Cc2c[nH]c3ccccc23)C(=O)N2CCC[C@H]2C(=O)O)NC(=O)[C@H](CC(=O)O)NC(=O)[C@H](Cc2c[nH]cn2)NC(=O)[C@H](Cc2c[nH]c3ccccc23)NC(=O)[C@H](CC(N)=O)NC(=O)[C@H](CC(N)=O)NC1=O` [compound 389, Ac-W-T-I-C(3)-N-N-W-H-D-C(3)-(NmeW)-P-CONH2] (Ac-WTICNNWHDC[NMeW]P-OH; disulfide 4-10), the Kd is 0.1 to 0.3 µM. As for `CC(=O)N[C@@H](Cc1c[nH]c2ccccc12)C(=O)N[C@H](C(=O)N[C@H](C(=O)N[C@H]1CSCSC[C@@H](C(=O)N[C@@H](Cc2c[nH]c3ccccc23)C(=O)N2CCC[C@H]2C(N)=O)NC(=O)[C@H](CC(=O)O)NC(=O)[C@H](CCCCNC(=O)CN2CCN(CC(=O)O)CCN(CC(=O)O)CCN(CC(=O)O)CC2)NC(=O)[C@H](Cc2ccc3ccccc3c2)NC(=O)[C@H](CC(N)=O)NC(=O)[C@H](CC2CCNCC2)NC1=O)C1CCCCC1)[C@@H](C)O` [compound 398, Ac-W-T-(Chg)-C(1)-[3-(4-piperidinyl)-Ala]-N-(2Nal)-Lys(DOTA)-D-C(1)-W-P-CONH2] (Ac-WT[Chg]C[Ala(piperidin-4-yl)]N[2Nal]K(DOTA)DCWP-NH2; linker 4-10 via CH2), the Kd is < 0.001 µM.

Take `CC(=O)N[C@@H](Cc1c[nH]c2ccccc12)C(=O)N[C@H](C(=O)N[C@H](C(=O)N[C@H]1CSCSC[C@@H](C(=O)N[C@@H](Cc2c[nH]c3ccccc23)C(=O)N2CCC[C@H]2C(N)=O)NC(=O)[C@H]([C@@H](C)O)NC(=O)[C@H](CCCCNC(=O)CN2CCN(CC(=O)O)CCN(CC(=O)O)CCN(CC(=O)O)CC2)NC(=O)[C@H](Cc2ccc3ccccc3c2)NC(=O)[C@H](CC(N)=O)NC(=O)[C@H](CC2CCNCC2)NC1=O)C1CCCCC1)[C@@H](C)O` [compound 399, Ac-W-T-(Chg)-C(1)-[3-(4-piperidinyl)-Ala]-N-(2Nal)-Lys(DOTA)-(Thr)-C(1)-W-P-CONH2] (Ac-WT[Chg]C[Ala(piperidin-4-yl)]N[2Nal]K(DOTA)TCWP-NH2; linker 4-10 via CH2): the Kd was < 0.001 µM. To `CCCC[C@@H](C(=O)N[C@H]1CSCSC[C@@H](C(=O)N[C@@H](Cc2c[nH]c3ccccc23)C(=O)N2CCC[C@H]2C(N)=O)NC(=O)[C@H](CC(=O)O)NC(=O)[C@H](CCCCNC(=O)CN2CCN(CC(=O)O)CCN(CC(=O)O)CCN(CC(=O)O)CC2)NC(=O)[C@H](Cc2ccc3ccccc3c2)NC(=O)[C@H](CC(N)=O)NC(=O)[C@H](CC2CCNCC2)NC1=O)N(C)C(=O)[C@@H](NC(=O)[C@H](Cc1c[nH]c2ccccc12)NC(C)=O)[C@@H](C)O` [compound 400, Ac-W-T-(NMe-Nle)-C(1)-[3-(4-piperidinyl)-Ala]-N-(2Nal)-Lys(DOTA)-D-C(1)-W-P-CONH2] (Ac-WT[NMeNle]C[Ala(piperidin-4-yl)]N[2Nal]K(DOTA)DCWP-NH2; linker 4-10 via CH2) belongs < 0.001 µM; to `CC(=O)N[C@@H](Cc1c[nH]c2ccccc12)C(=O)N[C@H](C(=O)N[C@H](C(=O)N[C@H]1CSCc2ccccc2CSC[C@@H](C(=O)N[C@@H](Cc2c[nH]c3ccccc23)C(=O)N2CCC[C@H]2C(N)=O)NC(=O)[C@H](CC(=O)O)NC(=O)[C@H](CCCCNC(=O)CN2CCN(CC(=O)O)CCN(CC(=O)O)CCN(CC(=O)O)CC2)NC(=O)[C@H](Cc2ccc3ccccc3c2)NC(=O)[C@H](CC(N)=O)NC(=O)[C@H](CC2CCNCC2)NC1=O)C1CCCCC1)[C@@H](C)O` [compound 401, Ac-W-T-(Chg)-C(oDBX)-[3-(4-piperidinyl)-Ala]-N-(2Nal)-Lys(DOTA)-D-C(3)-W-P-CONH2] (Ac-WT[Chg]C[Ala(piperidin-4-yl)]N[2Nal]K(DOTA)DCWP-NH2; linker 4-10 via oXylylene), 0.001 to 0.01 µM.

Turning to `CC(=O)N[C@@H](Cc1c[nH]c2ccccc12)C(=O)N[C@H](C(=O)N[C@H](C(=O)N[C@H]1CSCc2cccc(c2)CSC[C@@H](C(=O)N[C@@H](Cc2c[nH]c3ccccc23)C(=O)N2CCC[C@H]2C(N)=O)NC(=O)[C@H](CC(=O)O)NC(=O)[C@H](CCCCNC(=O)CN2CCN(CC(=O)O)CCN(CC(=O)O)CCN(CC(=O)O)CC2)NC(=O)[C@H](Cc2ccc3ccccc3c2)NC(=O)[C@H](CC(N)=O)NC(=O)[C@H](CC2CCNCC2)NC1=O)C1CCCCC1)[C@@H](C)O` [compound 402, Ac-W-T-(Chg)-C(mDBX)-[3-(4-piperidinyl)-Ala]-N-(2Nal)-Lys(DOTA)-D-C(3)-W-P-CONH2] (Ac-WT[Chg]C[Ala(piperidin-4-yl)]N[2Nal]K(DOTA)DCWP-NH2; linker 4-10 via mXylylene), the Kd lay in the range of 0.1 to 0.3 µM. As to `CC(=O)N[C@@H](Cc1c[nH]c2c(C)cccc12)C(=O)N[C@H](C(=O)N[C@H](C(=O)N[C@H]1CSSC[C@@H](C(=O)N[C@@H](Cc2c[nH]c3ccccc23)C(=O)N2CCC[C@H]2C(N)=O)NC(=O)[C@H](CC(=O)O)NC(=O)[C@H](CCCCNC(=O)CN2CCN(CC(=O)O)CCN(CC(=O)O)CCN(CC(=O)O)CC2)NC(=O)[C@H](Cc2ccc3ccccc3c2)NC(=O)[C@H](CC(N)=O)NC(=O)[C@H](CC2CCNCC2)NC1=O)C1CCCCC1)[C@@H](C)O` [compound 404, Ac-(7Me-Trp)-T-(Chg)-C(3)-[3-(4-piperidinyl)-Ala]-N-(2Nal)-Lys(DOTA)-D-C(3)-W-P-CONH2] (Ac-[Trp(7-Me)]T[Chg]C[Ala(piperidin-4-yl)]N[2Nal]K(DOTA)DCWP-NH2; disulfide 4-10), the Kd is < 0.001 µM. Turning to `COc1cccc2c(C[C@H](NC(C)=O)C(=O)N[C@H](C(=O)N[C@H](C(=O)N[C@H]3CSSC[C@@H](C(=O)N[C@@H](Cc4c[nH]c5ccccc45)C(=O)N4CCC[C@H]4C(N)=O)NC(=O)[C@H](CC(=O)O)NC(=O)[C@H](CCCCNC(=O)CN4CCN(CC(=O)O)CCN(CC(=O)O)CCN(CC(=O)O)CC4)NC(=O)[C@H](Cc4ccc5ccccc5c4)NC(=O)[C@H](CC(N)=O)NC(=O)[C@H](CC4CCNCC4)NC3=O)C3CCCCC3)[C@@H](C)O)c[nH]c12` [compound 405, Ac-(7MeO-Trp)-T-(Chg)-C(3)-[3-(4-piperidinyl)-Ala]-N-(2Nal)-Lys(DOTA)-D-C(3)-W-P-CONH2] (Ac-[Trp(7-OMe)]T[Chg]C[Ala(piperidin-4-yl)]N[2Nal]K(DOTA)DCWP-NH2; disulfide 4-10), the Kd is < 0.001 µM.
